ChEMBL document CHEMBL1151789, “Molecular modeling studies toward the structural optimization of new cyclopeptide-based HDAC inhibitors modeled on the natural product FR235222” (Bioorg Med Chem, 2008)

Assay: Inhibition of HDLP

Row | Ki [µM] | IC50 [µM] | SMILES
1 | 0.0458 |  | CC[C@]1(C)NC(=O)[C@H](CCCCCC(=O)[C@@H](C)O)NC(=O)[C@@H]2CC(C)(C)CN2C(=O)[C@H](Cc2ccccc2)NC1=O
2 | 0.0369 | 0.28 | C[C@@H](O)C(=O)CCCCC[C@@H]1NC(=O)[C@H]2CCCN2C(=O)[C@H](Cc2ccccc2)NC(=O)[C@H](Cc2ccccc2)NC1=O
3 | 0.00777 |  | C[C@@H](O)C(=O)CCCCC[C@@H]1NC(=O)[C@@H]2CCCN2C(=O)[C@H](Cc2ccccc2)NC(=O)[C@H](Cc2c[nH]c3ccccc23)NC1=O
4 | 0.02 |  | C[C@H](O)C(=O)CCCCC[C@@H]1NC(=O)[C@@H]2CCCN2C(=O)[C@H](Cc2ccccc2)NC(=O)[C@H](Cc2cnc[nH]2)NC1=O
5 | 0.0871 |  | C[C@H](O)C(=O)CCCCC[C@@H]1NC(=O)[C@H]2CCCN2C(=O)[C@H](Cc2ccccc2)NC(=O)[C@H](Cc2ccc(Cl)cc2)NC1=O
6 | 0.194 | 0.33 | C[C@H](O)C(=O)CCCCC[C@@H]1NC(=O)[C@H]2CCCN2C(=O)[C@H](Cc2ccccc2)NC(=O)C(C)(C)NC1=O
7 | 0.0164 | 0.03 | C[C@@H](O)C(=O)CCCCC[C@@H]1NC(=O)[C@H]2CCCN2C(=O)[C@H](Cc2ccccc2)NC(=O)C(C)(C)NC1=O
8 | 0.0106 |  | C[C@@H](O)C(=O)CCCCC[C@@H]1NC(=O)[C@@H]2CCCN2C(=O)[C@H](Cc2ccccc2)NC(=O)C(C)(C)NC1=O
9 | 0.0342 | 350 | C[C@H](O)C(=O)CCCCC[C@@H]1NC(=O)[C@H]2CCCN2C(=O)[C@H](Cc2ccccc2)NC(=O)[C@H](Cc2cnc[nH]2)NC1=O
10 | 0.0234 |  | C[C@H](O)C(=O)CCCCC[C@@H]1NC(=O)[C@@H]2CCCN2C(=O)[C@H](Cc2ccccc2)NC(=O)[C@H](Cc2ccc(Cl)cc2)NC1=O
11 | 0.0821 |  | C[C@@H](O)C(=O)CCCCC[C@@H]1NC(=O)[C@@H]2CCCN2C(=O)[C@H](Cc2ccccc2)NC(=O)[C@H](Cc2ccccc2)NC1=O
12 | 0.000987 | 0.02 | C[C@@H](O)C(=O)CCCCC[C@@H]1NC(=O)[C@H]2CCCN2C(=O)[C@H](Cc2ccccc2)NC(=O)[C@H](Cc2c[nH]c3ccccc23)NC1=O
13 | 0.0528 |  | C[C@H](O)C(=O)CCCCC[C@@H]1NC(=O)[C@@H]2CCCN2C(=O)[C@H](Cc2ccccc2)NC(=O)C(C)(C)NC1=O
14 | 0.0536 |  | CC[C@@H]1NC(=O)[C@H](CCCCCC(=O)[C@H](C)O)NC(=O)[C@@H]2CCCN2C(=O)[C@H](Cc2ccccc2)NC1=O
15 | 0.11 | 1 | CC[C@@H]1NC(=O)[C@H](CCCCCC(=O)[C@H](C)O)NC(=O)[C@H]2CCCN2C(=O)[C@H](Cc2ccccc2)NC1=O
16 | 0.0604 | 0.09 | CC[C@]1(C)NC(=O)[C@H](CCCCCC(=O)[C@@H](C)O)NC(=O)[C@H]2CC(C)(C)CN2C(=O)[C@H](Cc2ccccc2)NC1=O
17 | 0.00679 |  | C[C@H](O)C(=O)CCCCC[C@@H]1NC(=O)[C@@H]2CCCN2C(=O)[C@H](Cc2ccccc2)NC(=O)C2(CCCCC2)NC1=O
18 | 0.0254 | 0.67 | C[C@H](O)C(=O)CCCCC[C@@H]1NC(=O)[C@H]2CCCN2C(=O)[C@H](Cc2ccccc2)NC(=O)C2(CCCCC2)NC1=O

Row | SMILES | Ki [µM] | IC50 [µM]
19 | CC[C@]1(C)NC(=O)[C@H](CCCCCC(=O)[C@@H](C)O)NC(=O)[C@H]2CCCN2C(=O)[C@H](Cc2ccccc2)NC1=O | 0.0186 | 0.05
20 | CC[C@]1(C)NC(=O)[C@H](CCCCCC(=O)[C@@H](C)O)NC(=O)[C@@H]2CCCN2C(=O)[C@H](Cc2ccccc2)NC1=O | 0.0127 | 
